Reference: patent US10301299B2, “Glycosidase inhibitors” (Merck Patent GmbH, priority 2013, dated 2019)

Tests used:
Tg(tauP301L)4510 mice [1] = assay: Western blot of O-GlcNAcylation and tau phosphorylation in brain of Tg4510 mice; assay type: in vivo, mouse
Protocol: (§1) Animals: Tg(tauP301L)4510 mice were generated as previously described (Santacruz et al., 2005, Science 309: 476-481). Animals were bred and housed at the McLaughlin Research Institute (Great Falls, Mont.). All experiments were approved by the MRI Institutional Animal Care and Use Committee (IACUC).
Tau immunoprecipitation: To immunoprecipitate tau protein from brain lysates a Crosslink Immunoprecipitation kit (Pierce 26147) was used. The A/G resin was crosslinked to 10 μg of the HT7 tau antibody (Thermo Scientific MN1000) or control mouse IgG (Santa Cruz Biotech sc-2025) via the manufacturer's protocol. 250 μg of brain lysates prepared as described below was incubated with the resin-coupled tau antibody overnight at 4-C. Samples were eluted with 50 μl of low pH Elution buffer and immediately centrifuged into collection tubes containing 5 μl of 1M Tris, pH 9.5. Immunoprecipitated tau was subjected to Western blotting as described below.
Western Blot: To examine changes in O-GlcNAcylation and phosphorylation, animals were euthanized 4 h after injection in the acute or subchronic studies and 24 h after the last injection in the chronic study. Hemi-forebrains were rapidly dissected and frozen on dry ice. Tissue samples were homogenized in Phosphosafe Buffer (EMD Chemicals), followed by a low-speed centrifugation (15,000 g) to remove cellular debris. The resulting supernatant (low-speed supernatant, Lss) was assayed to determine protein concentrations by Lowry method. O-GlcNAcylation and phosphorylation were determined in 20 μg protein samples subjected to 4-15% SDS-PAGE (Tris-HCl gels, Bio-Rad), followed by a transfer to nitrocellulose membranes (Invitrogen, IBlot system). Membranes were blocked in Licor blocking buffer at room temperature for 1 h and incubated in primary antibody overnight at 4° C. Total protein O-GlcNAcylation was detected using the RL2 antibody (1:500, ThermoScientific), tau O-GlcNAcylation was detected using the Otau(S400) antibody (1:500) and tau phosphorylation was detected using AT8 (1:500, ThermoScientific), pS396, pS262, pS356 (1:500, Abcam) and pS400 (1:5000, GenScript). GAPDH (1:1000, Abcam) or total tau (1:50,000 ThermoScientific) antibodies served as internal loading controls. Membranes were incubated with species-specific fluorophore-conjugated secondary (1:10,000; Licor) antibodies for 1 h at room temperature and detected using the Licor Odyssey. […]

Tg(tauP301L)4510 mice [2] = assay: Immunohistochemistry (AT8) and Bielschowsky stain of hippocampus in Tg4510 mice; assay type: in vivo, mouse; conditions: chronic 4 months
Protocol: as §1
Immunohistochemistry: To examine changes in tangle pathology, a hemibrain was dissected and immersion fixed in 10% neutral buffered formalin for 24-48 h and subsequently embedded in paraffin blocks. 10 micron serial coronal sections were mounted onto Superfrost Plus slides, and stained using Bond Intense R kit. To detect dystrophic AT8 neurons, mounted slides were pretreated with antigen retrieval solutions for 10 min followed by washes with BOND wash buffer. Sections were subsequently quenched with hydrogen peroxide in Bond Intense R kit, blocked with M.O.M. blocking buffer (M.O.M Immunodetection Kits, Vector Laboratories), and then incubated with pS202/205 primary antibody (1:500; ThermoScientific). Sections were then incubated sequentially with biotinylated donkey anti-mouse secondary antibody (1:200; Jackson Immunoresearch), Streptavidin-HRP, and 3,3′-diaminobenzidine (both BOND Intense R kit). To detect agyrophilic tangles, sections were deparafinized, rehydrated in distilled water and treated with formaldehyde (4%) overnight at 37° C. Sections were washed in tap water, incubated in a 20% silver nitrate solution for 15 min in the dark, washed, incubated with ammoniated silver solution for 10 min in the dark, washed in ammonia water, and treated with developer. Sections were subsequently washed in ammonia water, distilled water, thiosulfate sodium, dehydrated and mounted.

CCN=C1N[C@@H]2[C@@H](O)[C@H](O)[C@@H](CO)O[C@@H]2S1 [ThiametG] was tested, and the “tau O-GlcNAcylation elevated (Otau(S400))” value (Tg(tauP301L)4510 mice [1]; 4 months of dosing) was 9 fold, the “levels of total protein O-GlcNAcylation” value (Tg(tauP301L)4510 mice [1]; 4 months, 500 mg/kg/day) was 185% and the “tau phosphorylation at S202/205” value (Tg(tauP301L)4510 mice [1]; 14 days) was “returned towards basal levels”. The “tau phosphorylation at S262” value (Tg(tauP301L)4510 mice [1]; 14 days) was “returned towards basal levels”, the “tau phosphorylation at S356” value (Tg(tauP301L)4510 mice [1]; 14 days) was “still significantly reduced” and the “tau phosphorylation at S396” value (Tg(tauP301L)4510 mice [1]; 14 days) was “returned towards basal levels”. For the same compound, the “total protein O-GlcNAcylation in the CNS” value (Tg(tauP301L)4510 mice [1]; 14 days of administration, 500 mg/kg/day, vs vehicle) was “significant increase”, the “tau phosphorylation at S400” value (Tg(tauP301L)4510 mice [1]; acute treatment) was “did not alter” and the “increase in tau O-GlcNAcylation (Otau(S400))” value (Tg(tauP301L)4510 mice [1]; repeated injection (14 days), vs vehicle) was 9 fold. For the same compound, the “tau O-GlcNAcylation (Otau(S400))” value (Tg(tauP301L)4510 mice [1]; single injection) was “small increase”, the “tau phosphorylation at S202/205” value (Tg(tauP301L)4510 mice [1]; single injection) was “reduced” and the “tau phosphorylation at S262” value (Tg(tauP301L)4510 mice [1]; single injection) was “reduced”. For the same compound, the “tau phosphorylation at S356” value (Tg(tauP301L)4510 mice [1]; single injection) was “reduced”, the “tau phosphorylation at S396” value (Tg(tauP301L)4510 mice [1]; single injection) was “reduced” and the “total protein O-GlcNAcylation in the CNS” value (Tg(tauP301L)4510 mice [1]; single injection, 500 mg/kg/day, 4 h, vs vehicle) was “significant increase”. For the same compound, the “pS202/205 (AT8) positive dystrophic neurons” value (Tg(tauP301L)4510 mice [2]; CA1 region of the hippocampus) was “significantly reduced”, the “tangle pathology (Bielschowsky staining)” value (Tg(tauP301L)4510 mice [2]; CA1 region of the hippocampus) was “significant reduction” and the “pS202/205 (AT8) positive dystrophic neurons” value (Tg(tauP301L)4510 mice [2]; CA3 region of the hippocampus) was “significantly reduced”. The “tangle burden (Bielschowsky staining)” value (Tg(tauP301L)4510 mice [2]; CA3 region of the hippocampus) was “no difference”.
